This note sets out measurements from US20240101576A1, “HETEROCYCLIC INHIBITORS OF EGFR AND/OR HER2, FOR USE IN THE TREATMENT OF CANCER” (Scorpion Therapeutics, Inc., priority 2020, published 2024).

What all share (format): cell-based
The target in assay [1] is T1, EGFR exon 20 SVD Ins D770_N771 (Ba/F3 cells) (Homo sapiens, UniProt P00533, INS770SVD).
T1 construct: expressed in transfected cells; host or cells: Ba/F3 (murine pro-B cells), retroviral transduction, puromycin selection, IL3-independent pool
T1 sequence (P00533 with tags, fused parts or gaps INS770SVD): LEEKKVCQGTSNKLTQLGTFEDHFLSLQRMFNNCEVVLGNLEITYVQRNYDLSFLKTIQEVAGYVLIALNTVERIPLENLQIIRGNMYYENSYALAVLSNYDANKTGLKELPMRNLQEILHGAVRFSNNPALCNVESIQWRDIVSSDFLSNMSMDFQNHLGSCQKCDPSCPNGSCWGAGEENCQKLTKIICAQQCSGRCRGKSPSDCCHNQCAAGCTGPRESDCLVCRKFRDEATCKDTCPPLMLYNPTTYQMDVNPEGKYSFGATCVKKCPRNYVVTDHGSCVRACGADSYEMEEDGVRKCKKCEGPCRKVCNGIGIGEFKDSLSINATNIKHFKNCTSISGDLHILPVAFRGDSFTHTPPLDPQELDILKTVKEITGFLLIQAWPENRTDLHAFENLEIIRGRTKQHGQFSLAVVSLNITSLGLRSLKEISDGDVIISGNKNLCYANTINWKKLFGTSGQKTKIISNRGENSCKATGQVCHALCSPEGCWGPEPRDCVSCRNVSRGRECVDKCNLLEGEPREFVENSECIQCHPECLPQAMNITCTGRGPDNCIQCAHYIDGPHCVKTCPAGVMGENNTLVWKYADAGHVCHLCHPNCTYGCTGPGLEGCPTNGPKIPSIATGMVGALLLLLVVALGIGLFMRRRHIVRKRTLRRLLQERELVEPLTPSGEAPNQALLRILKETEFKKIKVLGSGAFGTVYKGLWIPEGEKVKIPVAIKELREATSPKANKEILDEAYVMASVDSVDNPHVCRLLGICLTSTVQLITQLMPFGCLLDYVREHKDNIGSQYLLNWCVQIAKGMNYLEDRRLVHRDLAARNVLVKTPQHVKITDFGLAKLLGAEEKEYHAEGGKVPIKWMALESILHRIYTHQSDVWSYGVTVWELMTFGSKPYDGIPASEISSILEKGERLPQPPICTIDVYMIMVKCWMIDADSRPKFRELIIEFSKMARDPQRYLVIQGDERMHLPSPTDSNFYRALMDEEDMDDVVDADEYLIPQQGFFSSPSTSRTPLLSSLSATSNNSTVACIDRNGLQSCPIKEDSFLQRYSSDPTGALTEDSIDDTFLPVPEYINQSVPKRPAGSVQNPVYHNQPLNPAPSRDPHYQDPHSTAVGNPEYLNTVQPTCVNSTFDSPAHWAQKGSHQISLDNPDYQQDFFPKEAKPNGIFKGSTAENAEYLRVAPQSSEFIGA
As to the kind of experiment: Inhibitor activity on EGFR-dependent cell growth (CellTiter-Glo, 72 h), Ba/F3 EGFR exon 20 SVD Ins. Conditions: read-out: BaF3 SVD IC50. An outline of the steps:
(§1)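 IC50s derive from a sigmoidal dose–response fit of CellTiter-Glo signal. The signal was normalised between […]-treated cells and cell-free medium. Ba/F3 mutant-EGFR cells, seeded at 400–800/well depending on the line, had 72 h of exposure to a 10-point, 3-fold compound series.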
On the technique in general: Cellular ATP, detected with luciferase, serves as a proxy for viable cell number.

The target in assay [2] is T2, EGFR exon 20 ASV Ins V769_D770 (Ba/F3 cells) (Homo sapiens, UniProt P00533, INS769ASV).
T2 construct: expressed in transfected cells; host or cells: Ba/F3 (murine pro-B cells), retroviral transduction, puromycin selection, IL3-independent pool
T2 sequence (P00533 with tags, fused parts or gaps INS769ASV): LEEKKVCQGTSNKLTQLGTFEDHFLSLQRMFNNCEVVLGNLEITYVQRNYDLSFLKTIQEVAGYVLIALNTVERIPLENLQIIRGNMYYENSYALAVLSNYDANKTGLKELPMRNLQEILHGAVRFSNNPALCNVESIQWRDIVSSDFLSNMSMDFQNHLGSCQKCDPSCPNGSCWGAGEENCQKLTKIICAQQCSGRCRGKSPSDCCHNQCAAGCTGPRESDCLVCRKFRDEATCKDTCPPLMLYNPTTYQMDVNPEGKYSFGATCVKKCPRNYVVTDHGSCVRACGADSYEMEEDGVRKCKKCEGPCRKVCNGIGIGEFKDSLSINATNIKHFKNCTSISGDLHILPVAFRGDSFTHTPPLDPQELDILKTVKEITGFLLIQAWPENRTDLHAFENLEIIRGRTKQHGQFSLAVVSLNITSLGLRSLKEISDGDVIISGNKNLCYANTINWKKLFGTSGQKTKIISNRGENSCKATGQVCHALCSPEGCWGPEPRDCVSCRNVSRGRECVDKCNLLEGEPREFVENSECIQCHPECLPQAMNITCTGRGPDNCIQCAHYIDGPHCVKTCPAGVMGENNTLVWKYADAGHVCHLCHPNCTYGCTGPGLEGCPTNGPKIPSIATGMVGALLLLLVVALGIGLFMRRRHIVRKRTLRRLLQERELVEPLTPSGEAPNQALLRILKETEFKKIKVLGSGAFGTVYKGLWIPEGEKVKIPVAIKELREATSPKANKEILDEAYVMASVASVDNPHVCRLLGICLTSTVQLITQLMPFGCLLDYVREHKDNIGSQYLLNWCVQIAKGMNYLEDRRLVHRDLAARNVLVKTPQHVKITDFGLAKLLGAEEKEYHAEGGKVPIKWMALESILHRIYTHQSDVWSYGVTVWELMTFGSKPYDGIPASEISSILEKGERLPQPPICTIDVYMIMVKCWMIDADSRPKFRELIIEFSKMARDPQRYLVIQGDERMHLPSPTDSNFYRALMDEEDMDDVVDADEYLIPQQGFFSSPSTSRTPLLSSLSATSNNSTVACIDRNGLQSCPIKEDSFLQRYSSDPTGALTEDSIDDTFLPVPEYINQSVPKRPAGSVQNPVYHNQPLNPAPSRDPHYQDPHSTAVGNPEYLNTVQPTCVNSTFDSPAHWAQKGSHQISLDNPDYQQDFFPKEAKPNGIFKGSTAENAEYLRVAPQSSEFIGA
Briefly: Inhibitor activity on EGFR-dependent cell growth (CellTiter-Glo, 72 h), Ba/F3 EGFR exon 20 ASV Ins. Conditions: read-out: BaF3 ASV IC50. An outline of the steps: as §1

In assay [3] the target is T3, EGFR exon 20 NPG Ins D770_N771 (Ba/F3 cells) (Homo sapiens, UniProt P00533, INS770NPG).
T3 construct: expressed in transfected cells; host or cells: Ba/F3 (murine pro-B cells), retroviral transduction, puromycin selection, IL3-independent pool
T3 sequence (P00533 with tags, fused parts or gaps INS770NPG): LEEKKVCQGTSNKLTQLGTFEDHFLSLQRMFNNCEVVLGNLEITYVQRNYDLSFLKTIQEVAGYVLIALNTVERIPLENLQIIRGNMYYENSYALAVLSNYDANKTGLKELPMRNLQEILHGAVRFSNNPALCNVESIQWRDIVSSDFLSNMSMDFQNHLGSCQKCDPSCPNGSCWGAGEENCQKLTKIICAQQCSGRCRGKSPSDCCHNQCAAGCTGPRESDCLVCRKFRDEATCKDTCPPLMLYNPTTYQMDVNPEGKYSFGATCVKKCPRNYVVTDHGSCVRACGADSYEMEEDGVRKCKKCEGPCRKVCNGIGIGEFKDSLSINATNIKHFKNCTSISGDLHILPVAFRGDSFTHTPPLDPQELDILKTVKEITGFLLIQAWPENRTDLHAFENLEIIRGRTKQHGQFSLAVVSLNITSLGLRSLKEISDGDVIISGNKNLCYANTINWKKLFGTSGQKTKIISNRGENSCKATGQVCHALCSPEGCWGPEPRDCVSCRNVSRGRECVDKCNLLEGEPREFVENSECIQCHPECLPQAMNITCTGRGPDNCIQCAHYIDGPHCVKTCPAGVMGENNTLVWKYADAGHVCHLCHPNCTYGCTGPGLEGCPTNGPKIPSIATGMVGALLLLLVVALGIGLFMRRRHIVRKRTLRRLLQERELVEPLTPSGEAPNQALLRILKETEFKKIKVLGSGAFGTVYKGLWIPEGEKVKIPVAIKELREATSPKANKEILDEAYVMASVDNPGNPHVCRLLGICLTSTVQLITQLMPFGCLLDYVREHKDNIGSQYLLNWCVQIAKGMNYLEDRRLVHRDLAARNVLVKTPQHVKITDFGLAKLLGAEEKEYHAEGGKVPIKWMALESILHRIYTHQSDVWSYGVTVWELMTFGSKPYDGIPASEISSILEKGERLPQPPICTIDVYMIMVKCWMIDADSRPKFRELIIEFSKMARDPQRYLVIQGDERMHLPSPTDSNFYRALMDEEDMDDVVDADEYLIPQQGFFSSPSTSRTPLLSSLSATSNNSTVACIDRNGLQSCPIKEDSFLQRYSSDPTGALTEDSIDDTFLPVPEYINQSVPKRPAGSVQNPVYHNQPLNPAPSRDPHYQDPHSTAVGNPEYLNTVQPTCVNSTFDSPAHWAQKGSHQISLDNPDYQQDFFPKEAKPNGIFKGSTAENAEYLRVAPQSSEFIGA
Briefly: Inhibitor activity on EGFR-dependent cell growth (CellTiter-Glo, 72 h), Ba/F3 EGFR exon 20 NPG Ins. Conditions: read-out: BaF3 NPG IC50. An excerpt: Example A. Inhibitor Activity on EGFR-Dependent Cell Growth
Cell lines are generated by transducing Ba/F3 cells with retroviruses containing vectors with EGFR WT, EGFR L858R, EGFR exon 19del, EGFR L858R/C797S, EGFR exon 20 NPG Ins D770_N771, EGFR exon 20 ASV Ins V769_D770, EGFR exon 20 SVD Ins D770_N771, or EGFR exon 20 FQEA Ins A763_V764 genes and a puromycin selection marker. Transduced cells are selected with puromycin for 7 days and are then be transferred into culture media without Interleukin 3 (IL3). EGFR WT cells are maintained with supplemental EGF. Surviving cells are confirmed to express EGFR by Western blot and maintained as a pool. The IC50 date were included in Table 6 and Table 7.
1.1 Cells are harvested from flask into cell culture medium and the cell number counted.
1.2 Cells are diluted with culture medium to the desired density and 40 μL of cell suspension is added into each well of 384-well cell culture plate and the seeding density is 800 (FQEA, exon 19del), 600 (WT, NPG, L858R/C797S), or 400 (ASV, SVD, L858R) cells/well.
2 Compound Preparation and Treatment
2.1 Test compounds are dissolved to 10 mM in a DMSO stock solution. 45 μL of stock solution is transferred to a 384 polypropylene plate (pp-plate). Perform 3-fold, 10-point dilution via transferring 15 μL compound into 30 μL DMSO using a TECAN (EVO200) liquid handler.
2.2 Spin plates at room temperature at 1,000 RPM for 1 minute.
2.3 Transfer 120 nL of diluted compound from compound source plate into the cell plate.
2.4 After compound treatment for 72 hours, perform CTG detection for compound treatment plates as described in “Detection” section.
3.1 Plates are removed from incubators and equilibrated at room temperature for 15 minutes.
3.2 Thaw the CellTiter Glo reagents and allow to equilibrate to room temperature before the experiment.
3.3 Add 40 μL of CellTiter-Glo reagent into each well (at 1:1 to culture medium). Then place the plates at room temperature for 30 min followed by reading on EnVision.
4.1 Inhibition activity is calculated following the formula below:
% Inhibition=100×(LumHC−LumSample)/(LumHC−LumLC) • where HC is obtained from cells treated with 0.1% DMSO only; and LC is obtained from culture medium only.
4.2 2. Calculate the IC50 by fitting the Curve using Xlfit (v5.3.1.3), equation 201.
Y=Bottom+(Top−Bottom)/(1+10^((Log IC50−X)*HillSlope))

For another assay, the target named is T4, EGFR WT (Ba/F3 cells) (Homo sapiens, UniProt P00533).
T4 construct: expressed in transfected cells; host or cells: Ba/F3 (murine pro-B cells), retroviral transduction, puromycin selection, maintained with EGF
T4 sequence (P00533 25-1210): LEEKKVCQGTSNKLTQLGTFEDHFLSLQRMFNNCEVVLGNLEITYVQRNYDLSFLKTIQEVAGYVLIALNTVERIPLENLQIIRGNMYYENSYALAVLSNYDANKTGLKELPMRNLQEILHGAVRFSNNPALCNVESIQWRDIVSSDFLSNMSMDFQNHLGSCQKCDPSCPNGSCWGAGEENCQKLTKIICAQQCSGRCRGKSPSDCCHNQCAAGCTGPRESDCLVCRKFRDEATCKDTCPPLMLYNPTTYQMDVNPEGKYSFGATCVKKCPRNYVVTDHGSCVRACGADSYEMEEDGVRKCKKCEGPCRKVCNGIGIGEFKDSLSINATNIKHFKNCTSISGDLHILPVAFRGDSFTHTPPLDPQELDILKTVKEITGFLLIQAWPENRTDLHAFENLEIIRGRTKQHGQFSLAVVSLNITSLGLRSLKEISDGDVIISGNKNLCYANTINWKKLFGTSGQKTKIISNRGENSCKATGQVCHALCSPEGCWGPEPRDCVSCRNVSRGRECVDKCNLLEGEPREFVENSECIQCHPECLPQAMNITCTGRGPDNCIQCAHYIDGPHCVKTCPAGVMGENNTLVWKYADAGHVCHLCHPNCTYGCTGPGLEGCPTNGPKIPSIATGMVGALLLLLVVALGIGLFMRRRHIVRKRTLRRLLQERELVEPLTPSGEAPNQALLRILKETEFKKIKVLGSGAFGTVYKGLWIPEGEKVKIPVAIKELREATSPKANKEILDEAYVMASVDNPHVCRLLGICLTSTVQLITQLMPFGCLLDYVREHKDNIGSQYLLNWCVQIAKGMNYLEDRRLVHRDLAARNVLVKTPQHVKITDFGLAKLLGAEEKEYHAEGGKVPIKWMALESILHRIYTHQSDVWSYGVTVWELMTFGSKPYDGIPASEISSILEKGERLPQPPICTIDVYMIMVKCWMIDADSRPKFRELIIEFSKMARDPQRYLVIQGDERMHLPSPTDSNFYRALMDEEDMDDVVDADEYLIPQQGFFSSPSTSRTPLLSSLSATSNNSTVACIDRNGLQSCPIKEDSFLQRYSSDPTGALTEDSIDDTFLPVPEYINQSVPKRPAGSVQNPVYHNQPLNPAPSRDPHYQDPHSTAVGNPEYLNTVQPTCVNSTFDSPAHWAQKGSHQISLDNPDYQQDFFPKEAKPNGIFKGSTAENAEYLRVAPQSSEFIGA
Briefly: Inhibitor activity on EGFR-dependent cell growth (CellTiter-Glo, 72 h), Ba/F3 EGFR WT. The note with it: read-out: BaF3 WT IC50. An outline of the steps: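 This growth assay used Ba/F3 cells that depend on wild-type EGFR and are kept in EGF without IL3. Compounds were made up as 10 mM DMSO stocks and diluted 3-fold over 10 points. 120 nL went onto 600 cells/well. After 72 hours, 40 μL CellTiter-Glo was added and luminescence read on EnVision after 30 min.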

In general, IC50 refers to the concentration needed to halve the response being measured.

In the case of `COC(=O)N1CCC2(CNC(=O)c3c2[nH]c(-c2ccncc2F)c3Nc2cccc(Cl)c2OC)C1` (single isomer, unassigned) [Compound 497], the IC50 in assay [1] was 100 to 1000 nM; in assay [2], 100 to 1000 nM; in assay [3], < 100 nM; on EGFR WT (Ba/F3 cells) it was 100 to 1000 nM.
With `COc1c(Cl)cccc1Nc1c(-c2ccncc2F)[nH]c2c1C(=O)NCC2C[C@@H]1CO[C@@H](CN(C)C)CO1` (single isomer, unassigned) [Compound 563, (7R*)-3-[(3-chloro-2-methoxyphenyl)amino]-7-{[(2R,5S)-5-[(dimethylamino)methyl]-1,4-dioxan-2-yl]methyl}-2-(3-fluoropyridin-4-yl)-1H,5H,6H,7H-pyrrolo[3,2-c]pyridin-4-one], the half-inhibitory concentration (IC50) in assay [1] is 100 to 1000 nM; in assay [2], 100 to 1000 nM; in assay [3], 100 to 1000 nM; on EGFR WT (Ba/F3 cells), > 1000 nM.
With `COc1c(Cl)cccc1Nc1c(-c2ccncc2F)[nH]c2c1C(=O)NCC2C[C@H]1CO[C@H](CN(C)C)CO1` (single isomer, unassigned) [Compound 564, (7R*)-3-[(3-chloro-2-methoxyphenyl)amino]-7-{[(2S,5R)-5-[(dimethylamino)methyl]-1,4-dioxan-2-yl]methyl}-2-(3-fluoropyridin-4-yl)-1H,5H,6H,7H-pyrrolo[3,2-c]pyridin-4-one], the IC50 is 100 to 1000 nM in assay [1], 100 to 1000 nM in assay [2], 100 to 1000 nM in assay [3] and > 1000 nM on EGFR WT (Ba/F3 cells).
Regarding `COc1c(Cl)cccc1Nc1c(-c2ccncn2)[nH]c2c1C(=O)NCC2C[C@H]1COCCO1` (single isomer, unassigned) [Compound 574, (7R*)-3-[(3-chloro-2-methoxyphenyl)amino]-7-[(2S)-1,4-dioxan-2-ylmethyl]-2-(pyrimidin-4-yl)-1H,5H,6H,7H-pyrrolo[3,2-c]pyridin-4-one], the concentration for half-maximal inhibition (IC50) is < 100 nM in assay [3] and > 1000 nM at EGFR WT (Ba/F3 cells).
As for `COc1c(F)cccc1Nc1c(-c2ccnc(C)n2)[nH]c2c1C(=O)NCC2C[C@H]1COCCO1` (single isomer, unassigned) [Compound 603], the IC50 in assay [1] was < 100 nM; in assay [2], < 100 nM; in assay [3], < 100 nM; at EGFR WT (Ba/F3 cells), > 1000 nM.
With `COc1c(F)cccc1Nc1c(-c2ccnc(C)n2)[nH]c2c1C(=O)NCC2C[C@@H]1COCCO1` (single isomer, unassigned) [Compound 605], the half-maximal inhibitory concentration (IC50) in assay [1] was 100 to 1000 nM; in assay [2], 100 to 1000 nM; in assay [3], 100 to 1000 nM; at EGFR WT (Ba/F3 cells) it was > 1000 nM.
In the case of `C=CC(=O)N1CCC2(CC1)CNC(=O)c1c2[nH]c(-c2ccnc(N)n2)c1Nc1cccc(F)c1OC` [Compound 162, 1-acryloyl-2′-(2-aminopyrimidin-4-yl)-3′-((3-fluoro-2-methoxyphenyl)amino)-5′,6′-dihydrospiro[piperidine-4,7′-pyrrolo[3,2-c]pyridin]-4′(1′H)-one], the IC50 in assay [1] is 100 to 1000 nM; in assay [2] it was < 100 nM; in assay [3] it was 100 to 1000 nM; at EGFR WT (Ba/F3 cells), 100 to 1000 nM.
With `C=CC(=O)N1CCC2(CC1)CNC(=O)c1c2[nH]c(-c2ccncn2)c1Nc1cccc(Cl)c1OC` [Compound 478, 3′-[(3-chloro-2-methoxyphenyl)amino]-1-(prop-2-enoyl)-2′-(pyrimidin-4-yl)-5′,6′-dihydro-1′H-spiro[piperidine-4,7′-pyrrolo[3,2-c]pyridin]-4′-one], the 50% inhibitory concentration (IC50) (in assay [1]; in assay [2]; in assay [3]; on EGFR WT (Ba/F3 cells)) was < 100 nM in each case.
Take `COC(=O)N1CC2(CNC(=O)c3c2[nH]c(-c2ccncc2F)c3Nc2cccc(Cl)c2OC)C1` [Compound 490, methyl 3′-[(3-chloro-2-methoxyphenyl)amino]-2′-(3-fluoropyridin-4-yl)-4′-oxo-5′,6′-dihydro-1′H-spiro[azetidine-3,7′-pyrrolo[3,2-c]pyridine]-1-carboxylate]: the IC50 (in assay [1]; in assay [2]; in assay [3]; on EGFR WT (Ba/F3 cells)) was > 1000 nM throughout.
For `COC(=O)N1CC[C@@]2(CNC(=O)c3c2[nH]c(-c2ccncc2F)c3Nc2cccc(Cl)c2OC)C1` [Compound 498, methyl (3R)-3′-[(3-chloro-2-methoxyphenyl)amino]-2′-(3-fluoropyridin-4-yl)-4′-oxo-5′,6′-dihydro-1′H-spiro[pyrrolidine-3,7′-pyrrolo[3,2-c]pyridine]-1-carboxylate], the concentration for half-maximal inhibition (IC50) is > 1000 nM in assay [1], > 1000 nM in assay [2], 100 to 1000 nM in assay [3] and > 1000 nM at EGFR WT (Ba/F3 cells).
With `CNC(=O)N1CC[C@@]2(CNC(=O)c3c2[nH]c(-c2ccncc2F)c3Nc2cccc(Cl)c2OC)C1` [Compound 499, (3R)-3′-[(3-chloro-2-methoxyphenyl)amino]-2′-(3-fluoropyridin-4-yl)-N-methyl-4′-oxo-5′,6′-dihydro-1′H-spiro[pyrrolidine-3,7′-pyrrolo[3,2-c]pyridine]-1-carboxamide], the half-inhibitory concentration (IC50) (in assay [1]; in assay [2]; in assay [3]; at EGFR WT (Ba/F3 cells)) was > 1000 nM in each case.
In the case of `CNC(=O)N1CC[C@]2(CNC(=O)c3c2[nH]c(-c2ccncc2F)c3Nc2cccc(Cl)c2OC)C1` [Compound 500, (3S)-3′-[(3-chloro-2-methoxyphenyl)amino]-2′-(3-fluoropyridin-4-yl)-N-methyl-4′-oxo-5′,6′-dihydro-1′H-spiro[pyrrolidine-3,7′-pyrrolo[3,2-c]pyridine]-1-carboxamide], the IC50 (in assay [1]; in assay [2]; in assay [3]; on EGFR WT (Ba/F3 cells)) was > 1000 nM each time.
On to `COc1c(Cl)cccc1Nc1c(-c2ccncc2F)[nH]c2c1C(=O)NCC21CCN(C(=O)/C=C/CN(C)C)CC1` [Compound 522, 3′-[(3-chloro-2-methoxyphenyl)amino]-1-[4-(dimethylamino)but-2-enoyl]-2′-(3-fluoropyridin-4-yl)-5′,6′-dihydro-1′H-spiro[piperidine-4,7′-pyrrolo[3,2-c]pyridin]-4′-one], for which the IC50 in assay [1] is 100 to 1000 nM; in assay [2], 100 to 1000 nM; in assay [3], 100 to 1000 nM; on EGFR WT (Ba/F3 cells), > 1000 nM.
With `COc1c(Cl)cccc1Nc1c(-c2ccncn2)[nH]c2c1C(=O)NC[C@@H]2C[C@@H]1COCCO1` [Compound 528, (7S)-3-[(3-chloro-2-methoxyphenyl)amino]-7-[(2R)-1,4-dioxan-2-ylmethyl]-2-(pyrimidin-4-yl)-1H,5H,6H,7H-pyrrolo[3,2-c]pyridin-4-one], the values for the IC50 (in assay [3]; on EGFR WT (Ba/F3 cells)) were < 100 nM and > 1000 nM, respectively.
Take `COc1c(F)cccc1Nc1c(-c2ccncn2)[nH]c2c1C(=O)NC[C@@H]2C[C@@H]1COCCO1` [Compound 529, (7S)-7-[(2R)-1,4-dioxan-2-ylmethyl]-3-[(3-fluoro-2-methoxyphenyl)amino]-2-(pyrimidin-4-yl)-1H,5H,6H,7H-pyrrolo[3,2-c]pyridin-4-one]: the half-maximal inhibitory concentration (IC50) in assay [1] was 100 to 1000 nM; in assay [2], 100 to 1000 nM; in assay [3], 100 to 1000 nM; on EGFR WT (Ba/F3 cells) it was > 1000 nM.
Regarding `COCCOc1cncnc1-c1[nH]c2c(c1Nc1cccc(F)c1OC)C(=O)NCC2` [Compound 676, 3-[(3-fluoro-2-methoxyphenyl)amino]-2-[5-(2-methoxyethoxy)pyrimidin-4-yl]-1H,5H,6H,7H-pyrrolo[3,2-c]pyridin-4-one], the IC50 (in assay [3]; on EGFR WT (Ba/F3 cells)) was > 1000 nM each time.
